Test results reported in patent US10080775B2, “Peptide having skin whitening activity, and use thereof” (CAREGEN CO., LTD., priority 2017, dated 2018).
Peptide text beside a SMILES is read from it.

Tested on: melanin-forming cells (B16F10 cell line)
Assay: Cytotoxicity test (MTT assay)
Type: cell-based, mouse
Conditions: B16F10, 1 uM to 200 uM, 72 hours, serum-free medium
Method: After melanin-forming cells (B16F10 cell line) dispensed in 48-well culture plates were incubated in a 37° C. incubator for 24 hours, the medium for each plate was removed and replaced with serum-free medium, and then the cells were treated with the peptide of the present invention at different concentrations (1, 10, 50, 100, 150, 200 uM). After the cells were incubated for 72 hours, the MTT reagent was added, followed by reaction for 4 hours. Then, the generated formazan was dissolved in DMSO, and the absorbance was measured at 560 nm.

CCCC(CCC)C(=O)N[C@H](C(=O)N[C@@H](Cc1c[nH]c2ccccc12)C(=O)N[C@@H](CO)C(=O)N[C@@H](CC(C)C)C(=O)N[C@@H](CC(=O)O)C(=O)N[C@H](C(=O)N[C@@H](CCC(N)=O)C(=O)N[C@@H](Cc1ccc(O)cc1)C(=O)NCC(=O)NCC(=O)N[C@@H](CCCNC(=N)N)C(=O)NCC(=O)N[C@@H](CC(=O)O)C(=O)O)[C@@H](C)O)[C@@H](C)CC [Valprooyl-Ile-Trp-Ser-Leu-Asp-Thr-Gln-Tyr-Gly-Gly-Arg-Gly-Asp-COOH] (HELM PEPTIDE1{[CCCC(CCC)C(=O)[*:2]].I.W.S.L.D.T.Q.Y.G.G.R.G.D}$$$$V2.0)
cytotoxicity on melanocytes (MTT assay): no cytotoxicity was observed
